Experimental data published in ChEMBL document CHEMBL3045001, “Synthesis and evaluation of analgesic, anti-inflammatory, and anticancer activities of new pyrazole-3(5)-carboxylic acid derivatives” (Med Chem Res, 2013).

Tests used:
Mus musculus [1] = test: Analgesic activity in Mus musculus Swiss albino (mouse) assessed as inhibition of p-benzoquinone-induced abdominal writhing at 100 mg/kg, sc administered 30 min prior to PBQ injection measured after 5 min for 15 min; assay type: functional, Abdomen; set-up: scale not given: the % may be the effect or the level left; settings: route subcutaneous
Mus musculus [2] = test: Anti-inflammatory activity in carrageenan-induced Mus musculus Swiss albino (mouse) paw edema model assessed as paw swelling at 100 mg/kg, sc administered 30 min prior to carrageenan injection measured after 180 min (reference value: 51.0 +/-3.0 x10'-2 mm); assay type: functional; settings: route subcutaneous
Mus musculus [3] = species: Mus musculus; test: Acute toxicity against Mus musculus Swiss albino (mouse) assessed as mortality after 48 hr; assay type: organism-based; settings: in vivo
MDA-MB-231 [4] = test: Anticancer activity against Homo sapiens (human) estrogen-independent MDA-MB-231 cells assessed as cell viability at 50 uM after 24 hr by MTT assay (reference value: 100 +/-7.08%); assay type: functional; settings: MDA-MB-231, 24 h, read-out: Activity
MCF7 [5] = test: Anticancer activity against Homo sapiens (human) MCF7 cells assessed as cell viability at 50 uM after 24 hr by MTT assay (reference value: 100 +/-2.74%); assay type: functional; settings: MCF7, 24 h, read-out: Activity
Mus musculus [6] = test: Anti-inflammatory activity in carrageenan-induced Mus musculus Swiss albino (mouse) paw edema model assessed as paw swelling at 100 mg/kg, sc administered 30 min prior to carrageenan injection measured after 90 min (reference value: 38.0 +/-2.0 x10'-2 mm); assay type: functional; settings: route subcutaneous
Mus musculus [7] = test: Anti-inflammatory activity in carrageenan-induced Mus musculus Swiss albino (mouse) paw edema model assessed as paw swelling at 100 mg/kg, sc administered 30 min prior to carrageenan injection measured after 360 min (reference value: 77.0 +/-3.0 x10'-2 mm); assay type: functional; settings: route subcutaneous
Mus musculus [8] = test: Anti-inflammatory activity in carrageenan-induced Mus musculus Swiss albino (mouse) paw edema model assessed as inhibition of paw edema at 100 mg/kg, sc administered 30 min prior to carrageenan injection measured after 360 min; assay type: functional; settings: route subcutaneous
HL-60 [9] = test: Anticancer activity against Homo sapiens (human) HL60 cells assessed as cell viability at 50 uM after 24 hr by MTT assay (reference value: 100 +/-3.55%); assay type: functional; settings: HL-60, 24 h, read-out: Activity
HeLa [10] = test: Anticancer activity against Homo sapiens (human) HeLa cells assessed as cell viability at 50 uM after 48 hr by MTT assay (reference value: 100 +/-3.8%); assay type: functional; settings: read-out: Activity
Mus musculus [11] = test: Anti-inflammatory activity in carrageenan-induced Mus musculus Swiss albino (mouse) paw edema model assessed as inhibition of paw edema at 100 mg/kg, sc administered 30 min prior to carrageenan injection measured after 180 min; assay type: functional; settings: route subcutaneous
Mus musculus [12] = test: Anti-inflammatory activity in carrageenan-induced Mus musculus Swiss albino (mouse) paw edema model assessed as paw swelling at 100 mg/kg, sc administered 30 min prior to carrageenan injection measured after 270 min (rvb = 75.0 +/-3.0 x10'-2 mm); assay type: functional; settings: route subcutaneous
Raji [13] = test: Anticancer activity against Homo sapiens (human) Raji cells assessed as cell viability at 50 uM after 24 hr by MTT assay (reference value: 100 +/-5.02%); assay type: functional; settings: read-out: Activity
HeLa [14] = test: Anticancer activity against Homo sapiens (human) HeLa cells assessed as cell viability at 50 uM after 24 hr by MTT assay (reference value: 100 +/-4.13%); assay type: functional; settings: read-out: Activity
Mus musculus [15] = species: Mus musculus; test: Acute toxicity against Mus musculus Swiss albino (mouse) assessed as morbidity after 48 hr; assay type: organism-based; settings: in vivo
HL-60 [16] = test: Anticancer activity against Homo sapiens (human) HL60 cells assessed as cell viability at 50 uM after 48 hr by MTT assay (reference value: 100 +/-8.41%); assay type: functional; settings: HL-60, 48 h, read-out: Activity
MCF7 [17] = test: Anticancer activity against Homo sapiens (human) MCF7 cells assessed as cell viability at 50 uM after 48 hr by MTT assay (100 +/-5.08%); assay type: functional; settings: MCF7, 48 h, read-out: Activity
Mus musculus [18] = test: Anti-inflammatory activity in carrageenan-induced Mus musculus Swiss albino (mouse) paw edema model assessed as inhibition of paw edema at 100 mg/kg, sc administered 30 min prior to carrageenan injection measured after 90 min; assay type: functional; settings: route subcutaneous
MDA-MB-231 [19] = test: Anticancer activity against Homo sapiens (human) estrogen-independent MDA-MB-231 cells assessed as cell viability at 50 uM after 48 hr by MTT assay (reference value: 100 +/-3.71%); assay type: functional; settings: MDA-MB-231, 48 h, read-out: Activity
Mus musculus [20] = test: Anti-inflammatory activity in carrageenan-induced Mus musculus Swiss albino (mouse) paw edema model assessed as inhibition of paw edema at 100 mg/kg, sc administered 30 min prior to carrageenan injection measured after 270 min; assay type: functional; settings: route subcutaneous
Raji [21] = test: Anticancer activity against Homo sapiens (human) Raji cells assessed as cell viability at 50 uM after 48 hr by MTT assay (reference value: 100 +/-4.26%); assay type: functional; settings: read-out: Activity

## CC(=O)Oc1ccccc1C(=O)O [ASPIRIN]
Mus musculus [1]
  Activity: 68.9%

## CCOC(=O)C1CCN(C(=O)c2cc(-c3ccc(C)cc3)nn2Cc2ccccc2)CC1
Mus musculus [2]
  Activity: 34 ×10⁻² mm
Mus musculus [1]
  Activity: 77%
Mus musculus [3]
  Activity: Non-toxic
MDA-MB-231 [4]
  viability at 50 µM: 96.5%
MCF7 [5]
  viability at 50 µM: 54.2%
Mus musculus [6]
  Activity: 28 ×10⁻² mm
Mus musculus [7]
  Activity: 33 ×10⁻² mm
Mus musculus [8]
  inhibition in vivo at 100 mg/kg: 57.6%
HL-60 [9]
  viability at 50 µM: 102%
HeLa [10]
  viability at 50 µM: 49.9%
Mus musculus [11]
  inhibition in vivo at 100 mg/kg: 33.3%
Mus musculus [12]
  Activity: 34 ×10⁻² mm
Raji [13]
  viability at 50 µM: 77%
HeLa [14]
  viability at 50 µM: 53.5%
Mus musculus [15]
  Activity: Non-toxic
HL-60 [16]
  viability at 50 µM: 91.7%
MCF7 [17]
  viability at 50 µM: 88.2%
Mus musculus [18]
  inhibition in vivo at 100 mg/kg: 26.7%
MDA-MB-231 [19]
  viability at 50 µM: 64%
Mus musculus [20]
  inhibition in vivo at 100 mg/kg: 54.4%
Raji [21]
  viability at 50 µM: 97.3%

## Cc1ccc(-c2cc(C(=O)N3CCN(Cc4ccc(C(C)C)cc4)CC3)n(Cc3ccccc3)n2)cc1
Mus musculus [2]
  Activity: 49 ×10⁻² mm
Mus musculus [3]
  Activity: Non-toxic
MDA-MB-231 [4]
  viability at 50 µM: 74%
MCF7 [5]
  viability at 50 µM: 94.4%
Mus musculus [6]
  Activity: 44.2 ×10⁻² mm
Mus musculus [7]
  Activity: 53 ×10⁻² mm
Mus musculus [8]
  inhibition in vivo at 100 mg/kg: 30.4%
HL-60 [9]
  viability at 50 µM: 128%
HeLa [10]
  viability at 50 µM: 60.6%
Mus musculus [11]
  inhibition in vivo at 100 mg/kg: 4.1%
Mus musculus [12]
  Activity: 55 ×10⁻² mm
Raji [13]
  viability at 50 µM: 101%
HeLa [14]
  viability at 50 µM: 84.8%
Mus musculus [15]
  Activity: Non-toxic
HL-60 [16]
  viability at 50 µM: 104%
MCF7 [17]
  viability at 50 µM: 66.6%
MDA-MB-231 [19]
  viability at 50 µM: 51%
Mus musculus [20]
  inhibition in vivo at 100 mg/kg: 26.7%
Raji [21]
  viability at 50 µM: 109%

## Cc1ccc(-c2cc(C(=O)Oc3ccc(C(C)(C)C)cc3)n(Cc3ccccc3)n2)cc1
Mus musculus [2]
  Activity: 33 ×10⁻² mm
Mus musculus [1]
  Activity: 10.9%
Mus musculus [3]
  Activity: Non-toxic
MDA-MB-231 [4]
  viability at 50 µM: 119%
MCF7 [5]
  viability at 50 µM: 93.2%
Mus musculus [6]
  Activity: 40 ×10⁻² mm
Mus musculus [7]
  Activity: 29 ×10⁻² mm
Mus musculus [8]
  inhibition in vivo at 100 mg/kg: 62%
HL-60 [9]
  viability at 50 µM: 120%
HeLa [10]
  viability at 50 µM: 81.4%
Mus musculus [11]
  inhibition in vivo at 100 mg/kg: 35%
Mus musculus [12]
  Activity: 38 ×10⁻² mm
Raji [13]
  viability at 50 µM: 94.9%
HeLa [14]
  viability at 50 µM: 83.2%
Mus musculus [15]
  Activity: Non-toxic
HL-60 [16]
  viability at 50 µM: 112%
MCF7 [17]
  viability at 50 µM: 94.9%
MDA-MB-231 [19]
  viability at 50 µM: 62.9%
Mus musculus [20]
  inhibition in vivo at 100 mg/kg: 50%
Raji [21]
  viability at 50 µM: 103%

## Cc1ccc(-c2cc(C(=O)Oc3ccc(C(C)C)cc3)n(Cc3ccccc3)n2)cc1
Mus musculus [2]
  Activity: 39 ×10⁻² mm
Mus musculus [1]
  Activity: 33%
Mus musculus [3]
  Activity: Non-toxic
MDA-MB-231 [4]
  viability at 50 µM: 71.9%
MCF7 [5]
  viability at 50 µM: 80.3%
Mus musculus [6]
  Activity: 38.3 ×10⁻² mm
Mus musculus [7]
  Activity: 53 ×10⁻² mm
Mus musculus [8]
  inhibition in vivo at 100 mg/kg: 31.5%
HL-60 [9]
  viability at 50 µM: 115%
HeLa [10]
  viability at 50 µM: 69.7%
Mus musculus [11]
  inhibition in vivo at 100 mg/kg: 24%
Mus musculus [12]
  Activity: 53 ×10⁻² mm
Raji [13]
  viability at 50 µM: 105%
HeLa [14]
  viability at 50 µM: 87.2%
Mus musculus [15]
  Activity: Non-toxic
HL-60 [16]
  viability at 50 µM: 126%
MCF7 [17]
  viability at 50 µM: 90.5%
MDA-MB-231 [19]
  viability at 50 µM: 50.2%
Mus musculus [20]
  inhibition in vivo at 100 mg/kg: 29%
Raji [21]
  viability at 50 µM: 94.2%
